# Assay results reported in ChEMBL document CHEMBL5352448, “Novel tryptanthrin derivatives with benzenesulfonamide substituents: Design, synthesis, and anti-inflammatory evaluation” (Eur J Med Chem, 2023).
# Calls of active or inactive are those of the source. The rule behind the calls is not given here.
# How the values were obtained:
# RAW264.7 [1] = test: Cytotoxicity against mouse RAW264.7 cells assessed as reduction in cell viability at 40 uM incubated for 24 hrs by MTT assay; format: toxicity, cell-based; conditions: raw264.7, 24 h
# RAW264.7 [2] = test: Antiinflammatory activity in mouse RAW264.7 cells assessed as inhibition of LPS-induced NO production at 20 uM preincubated with compound for 1 hrs followed by LPS-stimulation and measured after 24 hrs by griess reagent based assay relative to control; format: functional
# RAW264.7 [3] = test: Antiinflammatory activity in mouse RAW264.7 cells assessed as inhibition of LPS-induced NO production preincubated with compound for 1 hrs followed by LPS-stimulation and measured after 24 hrs by griess reagent based assay; format: functional, cell-based
# RAW264.7 [4] = test: Antiinflammatory activity in mouse RAW264.7 cells assessed as inhibition of LPS-induced TNF-alpha production preincubated with compound for 1 hrs followed by LPS-stimulation and measured after 24 hrs by ELISA analysis; format: functional, cell-based
# RAW264.7 [5] = test: Antiinflammatory activity in mouse RAW264.7 cells assessed as inhibition of LPS-induced IL-1beta production preincubated with compound for 1 hrs followed by LPS-stimulation and measured after 24 hrs by ELISA analysis; format: functional, cell-based
# RAW264.7 [6] = test: Antiinflammatory activity in mouse RAW264.7 cells assessed as suppression of LPS-induced iNOS expression preincubated with compound for 1 hrs followed by LPS-stimulation and measured after 24 hrs by Western blot analysis; format: functional, cell-based; conditions: dose 1-5 µM
# RAW264.7 [7] = test: Antiinflammatory activity in mouse RAW264.7 cells assessed as suppression of LPS-induced COX-2 expression preincubated with compound for 1 hrs followed by LPS-stimulation and measured after 24 hrs by Western blot analysis; format: functional, cell-based; conditions: dose 1-5 µM
# [8] = target: Mitogen-activated protein kinase 14 (Mus musculus) (UniProt P47811); test: Thermal stabilization of P38alpha in LPS-induced mouse RAW264.7 cells at 30 uM preincubated with compound for 1 hrs followed by LPS stimulation and measured after 24 hrs at 50 to 55 degreeC by cellular thermal shift assay; format: cell-based
# Rattus norvegicus [9] = test: Antiarthritic activity against adjuvant arthritis-induced Sprague-Dawley rat model assessed as decrease in paw swelling pre-administered with FCA for 10 days followed by intragastric administration of compound once daily for 14 days and measured every 4 days; format: functional, organism-based; conditions: dose 10-30 mg/kg, route ig, time 14.0 day
# Rattus norvegicus [10] = test: Antiarthritic activity against adjuvant arthritis-induced Sprague-Dawley rat model assessed as improvement of arthritic index at 10 to 30 mg/kg, IG pre-administered with FCA for 10 days followed by compound administration once daily for 14 days and measured every 4 days; format: functional, organism-based; conditions: dose 10-30 mg/kg, time 14.0 day
# Rattus norvegicus [11] = test: Antiarthritic activity against adjuvant arthritis-induced Sprague-Dawley rat model assessed as reduction in body weight loss at 10 to 30 mg/kg, IG pre-administered with FCA for 10 days followed by compound administration once daily for 14 days and measured every 4 days; format: functional, organism-based; conditions: dose 10-30 mg/kg, time 14.0 day
# Rattus norvegicus [12] = test: Antiarthritic activity against adjuvant arthritis-induced Sprague-Dawley rat model assessed as alleviation of synovial cell proliferation at 10 to 30 mg/kg, IG pre-administered with FCA for 10 days followed by compound administration once daily for 14 days by H&E staining microscopic analysis; format: functional, organism-based; conditions: dose 10-30 mg/kg, time 14.0 day
# Rattus norvegicus [13] = test: Antiarthritic activity against adjuvant arthritis-induced Sprague-Dawley rat model assessed as alleviation of inflammatory cell infiltration at 10 to 30 mg/kg, IG pre-administered with FCA for 10 days followed by compound administration once daily for 14 days by H&E staining microscopic analysis; format: functional, organism-based; conditions: dose 10-30 mg/kg, time 14.0 day
# Rattus norvegicus [14] = test: Antiarthritic activity against adjuvant arthritis-induced Sprague-Dawley rat model assessed as decrease in IL-1beta level in serum pre-administered with FCA for 10 days followed by intragastric administration of compound once daily for 14 days by ELISA analysis; format: functional, organism-based; conditions: dose 10-30 mg/kg, route ig, time 14.0 day
# Rattus norvegicus [15] = test: Antiarthritic activity against adjuvant arthritis-induced Sprague-Dawley rat model assessed as decrease in TNF-alpha level in serum pre-administered with FCA for 10 days followed by intragastric administration of compound once daily for 14 days by ELISA analysis; format: functional, organism-based; conditions: dose 10-30 mg/kg, route ig, time 14.0 day
# [16] = target: T1, MAP kinase p38 (Mus musculus) (UniProt P47811+O08911+Q9WUI1+Q9Z1B7); test: Inhibition of LPS-induced p38 MAPK signaling activation in mouse RAW264.7 cells assessed as inhibition of p38 alpha phosphorylation preincubated with compound for 1 hrs followed by LPS stimulation and measured after 24 hrs by Western blot analysis; format: cell-based; conditions: dose 1-5 µM
# [17] = target: T1, MAP kinase p38 (Mus musculus); test: Inhibition of LPS-induced p38 MAPK signaling activation in mouse RAW264.7 cells assessed as reduction of MK2 phosphorylation preincubated with compound for 1 hrs followed by LPS stimulation and measured after 24 hrs by Western blot analysis; format: cell-based; conditions: dose 1-5 µM
# Mitogen-activated protein kinase 14 (Mus musculus), sequence (P47811 whole entry): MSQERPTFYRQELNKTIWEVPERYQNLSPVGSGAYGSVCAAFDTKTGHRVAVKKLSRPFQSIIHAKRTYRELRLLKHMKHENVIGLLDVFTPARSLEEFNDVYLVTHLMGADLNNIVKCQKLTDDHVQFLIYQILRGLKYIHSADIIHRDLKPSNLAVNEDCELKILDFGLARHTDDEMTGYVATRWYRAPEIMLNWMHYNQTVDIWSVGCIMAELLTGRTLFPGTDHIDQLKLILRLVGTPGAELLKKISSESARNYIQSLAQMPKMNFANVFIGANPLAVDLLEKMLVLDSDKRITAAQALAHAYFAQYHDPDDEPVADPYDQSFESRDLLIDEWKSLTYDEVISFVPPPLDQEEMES
SMILES,Activity (RAW264.7 [1]),inhibition at 20 µM (RAW264.7 [2]),further results
O=C1c2cc(NS(=O)(=O)c3ccc(OC(F)(F)F)cc3)ccc2-n2c1nc1ccccc1c2=O,Non-Toxic,42.9%,–
O=C1c2ccccc2-n2c1nc1ccc(NS(=O)(=O)c3ccc(Br)cc3)cc1c2=O,Non-Toxic,34.2%,–
O=C1c2cc(NS(=O)(=O)c3ccc(F)cc3)ccc2-n2c1nc1ccccc1c2=O,Non-Toxic,42.5%,–
CC(=O)Nc1ccc(S(=O)(=O)Nc2ccc3c(c2)C(=O)c2nc4ccccc4c(=O)n2-3)cc1,Non-Toxic,17.3%,–
Cc1ccc(S(=O)(=O)Nc2ccc3c(c2)C(=O)c2nc4ccccc4c(=O)n2-3)cc1,Non-Toxic,55.8%,–
O=C1c2ccccc2-n2c1nc1ccc(NS(=O)(=O)c3ccccc3C(F)(F)F)cc1c2=O,Non-Toxic,74.9%,–
CC(C)c1cc(C(C)C)c(S(=O)(=O)Nc2ccc3nc4n(c(=O)c3c2)-c2ccccc2C4=O)c(C(C)C)c1,Non-Toxic,81.2%,IC50 (RAW264.7 [3]): 4210 nM
O=C1c2ccccc2-n2c1nc1ccc(NS(=O)(=O)c3cccc(F)c3)cc1c2=O,Non-Toxic,64.4%,–
COc1ccc(S(=O)(=O)Nc2ccc3nc4n(c(=O)c3c2)-c2ccccc2C4=O)cc1OC,Non-Toxic,73%,–
O=C1c2cc(NS(=O)(=O)c3cccc(F)c3)ccc2-n2c1nc1ccccc1c2=O,Non-Toxic,37.5%,–
O=C1c2ccccc2-n2c1nc1ccc(NS(=O)(=O)c3ccccc3)cc1c2=O,Non-Toxic,14.5%,–
Nc1ccc2nc3n(c(=O)c2c1)-c1ccccc1C3=O,–,38.1%,–
O=C1c2ccccc2-n2c1nc1ccccc1c2=O [TRYPTANTHRIN],–,31.3%,–
O=C1c2cc(NS(=O)(=O)c3ccccc3OC(F)(F)F)ccc2-n2c1nc1ccccc1c2=O,Non-Toxic,46.2%,–
CC(C)(C)c1ccc(S(=O)(=O)Nc2ccc3nc4n(c(=O)c3c2)-c2ccccc2C4=O)cc1,Non-Toxic,58.2%,–
Nc1ccc2c(c1)C(=O)c1nc3ccccc3c(=O)n1-2,–,26.7%,–
O=C1c2cc(NS(=O)(=O)c3ccccc3)ccc2-n2c1nc1ccccc1c2=O,Non-Toxic,28.1%,–
CC(=O)Nc1ccc(S(=O)(=O)Nc2ccc3nc4n(c(=O)c3c2)-c2ccccc2C4=O)cc1,Non-Toxic,47.2%,–

SMILES,Activity (RAW264.7 [1]),inhibition at 20 µM (RAW264.7 [2]),further results
O=C1c2cc(NS(=O)(=O)c3ccc(Br)cc3)ccc2-n2c1nc1ccccc1c2=O,Non-Toxic,18.8%,–
O=C1c2ccccc2-n2c1nc1ccc(NS(=O)(=O)c3ccccc3OC(F)(F)F)cc1c2=O,Non-Toxic,82.1%,IC50 (RAW264.7 [3]): 3880 nM
O=C1c2cc(NS(=O)(=O)c3ccccc3C(F)(F)F)ccc2-n2c1nc1ccccc1c2=O,Non-Toxic,54.3%,–
O=C1c2cc(NS(=O)(=O)c3ccccc3F)ccc2-n2c1nc1ccccc1c2=O,Non-Toxic,49.1%,–
O=C1c2ccccc2-n2c1nc1ccc(NS(=O)(=O)c3ccccc3F)cc1c2=O,Non-Toxic,88.2%,IC50 (RAW264.7 [3]): 2720 nM
COc1ccc(S(=O)(=O)Nc2ccc3c(c2)C(=O)c2nc4ccccc4c(=O)n2-3)c(OC)c1,Non-Toxic,55.1%,–
COc1ccc(S(=O)(=O)Nc2ccc3c(c2)C(=O)c2nc4ccccc4c(=O)n2-3)cc1,Non-Toxic,56.4%,–
CC(C)(C)c1ccc(S(=O)(=O)Nc2ccc3c(c2)C(=O)c2nc4ccccc4c(=O)n2-3)cc1,Non-Toxic,20.6%,–
O=C1c2ccccc2-n2c1nc1ccc(NS(=O)(=O)c3c(Cl)cccc3Cl)cc1c2=O,Non-Toxic,64.4%,–
O=C1c2ccccc2-n2c1nc1ccc(NS(=O)(=O)c3ccc(OC(F)(F)F)cc3)cc1c2=O,Non-Toxic,63.6%,–
Cc1ccc(S(=O)(=O)Nc2ccc3nc4n(c(=O)c3c2)-c2ccccc2C4=O)cc1,Non-Toxic,90.2%,IC50 (RAW264.7 [3]): 2890 nM
COc1ccc(S(=O)(=O)Nc2ccc3c(c2)C(=O)c2nc4ccccc4c(=O)n2-3)cc1OC,Non-Toxic,57.2%,–
CC(C)c1cc(C(C)C)c(S(=O)(=O)Nc2ccc3c(c2)C(=O)c2nc4ccccc4c(=O)n2-3)c(C(C)C)c1,Non-Toxic,31.6%,–
O=C1c2ccccc2-n2c1nc1ccc(NS(=O)(=O)c3ccc(F)cc3)cc1c2=O,Non-Toxic,85.4%,IC50 (RAW264.7 [3]): 2730 nM
COc1ccc(S(=O)(=O)Nc2ccc3nc4n(c(=O)c3c2)-c2ccccc2C4=O)cc1,Non-Toxic,94%,IC50 (RAW264.7 [3]): 1250 nM; Activity (RAW264.7 [4]): Dose-Dependent Effect; IC50 (RAW264.7 [4]): 11.5 µM; Activity (RAW264.7 [5]): Dose-Dependent Effect; IC50 (RAW264.7 [5]): 8.48 µM; Activity (RAW264.7 [6]): Dose-Dependent Effect; Activity (RAW264.7 [7]): Dose-Dependent Effect; Activity [8]: Active; Activity (Rattus norvegicus [9]): Dose-Dependent Effect; Activity (Rattus norvegicus [10]): Active; Activity (Rattus norvegicus [11]): Active; Activity (Rattus norvegicus [12]): Active; Activity (Rattus norvegicus [13]): Active; Activity (Rattus norvegicus [14]): Dose-Dependent Effect; Activity (Rattus norvegicus [15]): Dose-Dependent Effect; inhibition [16]: Dose-Dependent Effect; inhibition [17]: Dose-Dependent Effect
COc1ccc(S(=O)(=O)Nc2ccc3nc4n(c(=O)c3c2)-c2ccccc2C4=O)c(OC)c1,Non-Toxic,78%,–
O=C1c2cc(NS(=O)(=O)c3c(Cl)cccc3Cl)ccc2-n2c1nc1ccccc1c2=O,Non-Toxic,38.4%,–
COc1ccc2c(c1)c(CC(=O)O)c(C)n2C(=O)c1ccc(Cl)cc1 [INDOMETHACIN],Non-Toxic,32.1%,–
